According to PMC13252604, “First Generation Proteolysis Targeting Chimeras (PROTACs) for the Treatment of Progeria” (Advanced Science, 2026):
Values after ≈ are worked out from the molar mass of the structure shown.

How the values were obtained:
progerin = target: T1, progerin (Mus musculus, UniProt P48678, DEL608-657); test: Progerin degradation, immunoblot in Lmna^G609G/G609G fibroblasts; assay type: cell-based; settings: 8 h; for progerin levels (immunoblot quantification): Lmna^G609G/G609G fibroblasts, 5 µM, vs vehicle
T1 construct: endogenous in cells; host or cells: immortalized (SV40-LT) fibroblasts from Lmna G609G/G609G mice
T1 sequence (P48678 with tags, fused parts or gaps DEL608-657 limits assumed): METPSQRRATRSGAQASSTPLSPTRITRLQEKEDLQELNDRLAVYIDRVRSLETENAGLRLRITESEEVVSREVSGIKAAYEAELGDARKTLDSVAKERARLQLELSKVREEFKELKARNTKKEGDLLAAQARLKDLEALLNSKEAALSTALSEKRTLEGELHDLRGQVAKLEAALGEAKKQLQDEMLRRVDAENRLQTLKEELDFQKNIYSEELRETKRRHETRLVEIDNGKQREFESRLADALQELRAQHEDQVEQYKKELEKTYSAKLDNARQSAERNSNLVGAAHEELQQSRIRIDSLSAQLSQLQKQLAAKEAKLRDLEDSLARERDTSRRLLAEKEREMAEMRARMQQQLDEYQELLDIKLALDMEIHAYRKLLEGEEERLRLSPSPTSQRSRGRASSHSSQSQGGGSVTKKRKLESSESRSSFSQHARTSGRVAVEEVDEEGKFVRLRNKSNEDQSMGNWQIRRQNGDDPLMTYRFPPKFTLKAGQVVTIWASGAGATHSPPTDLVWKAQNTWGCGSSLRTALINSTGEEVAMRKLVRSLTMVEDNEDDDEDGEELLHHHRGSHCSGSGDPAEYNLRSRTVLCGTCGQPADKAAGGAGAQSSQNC
Experimental: The ability of compounds 2‐6 to degrade progerin was evaluated in Lmna^G609G/G609G fibroblasts, derived from the progeria mouse model that most closely replicates the human disease phenotype. Lamin A/C antibody was used for immunodetection due to its prevalent use in this context, enabling simultaneous visualization of both lamins and progerin [15].
FIGURE 2 (A) Representative cropped immunoblots and quantification of progerin from Lmna^G609G/G609G fibroblasts. Cells were incubated with vehicle or indicated compound at 5 µM for 8 h. MW, molecular weight (in kDa) markers. (B, C) Concentration and time‐dependency of the reduction of progerin levels induced by compounds 2 and 9. Graphs show quantification of progerin in Lmna^G609G/G609G fibroblasts (immunoblots are shown in Supporting Figure S1). Cells were incubated with vehicle or the indicated compound concentration for 8 h. For time‐course experiments, cells were incubated with vehicle or indicated compound at 5 µM. Bar graphs show mean±sem of 3 independent experiments performed in duplicate. Data were analysed using one‐way ANOVA followed by Dunnett's post–hoc test comparing all groups to the vehicle; ^*, p < 0.05. […]
4. Cell lines and culture.
Progeroid mouse fibroblasts, kindly donated by Prof. Carlos López Otín (Oviedo University, Spain), were isolated from LmnaG609G/G609G mice[19] and wild-type (WT) littermates and immortalized by retroviral transduction with SV40 large T antigen (SV40-LT). Since LmnaG609G/G609G mouse represents the most suitable and widely accepted model of HGPS, as it most faithfully recapitulates the molecular and phenotypic features of the human disease, its use in this study is fully justified. Moreover, although this cell […]
cells have been extensively validated by additional independent studies.[15, 65, 66] […]
experiments, nor does it affect the conclusions presented in our study.
Mouse fibroblasts were grown in Dulbecco’s modified eagle medium (DMEM, Gibco) supplemented with 10% heat inactivated fetal bovine serum (FBS, Gibco), 50 U/mL penicillin, and 50 μg/mL streptomycin (Invitrogen). Human progeroid HGADFN167 LmnaG608G/G608G (G608G) or or healthy HGADFN168 Lmna+/+ (WT) fibroblasts, were obtained from The Progeria Research Foundation (RRIDs CVCL_1Y92 and CVCL_1Y93, respectively) and cultured in DMEM with 20% heat inactivated FBS, 50 U/mL penicillin and 50 μg/mL streptomycin. All cells were incubated in a humidified atmosphere at 37 °C in the presence of 5% CO2 and were confirmed to be free of mycoplasma contamination. […]
Measurements were performed in triplicate, and each experiment was repeated at least three times. The viability values were calculated from the percentage of viable cells with respect to 100% viability of the vehicle-treated cells.
6. Immunoblot and immunocytofluorescence analysis.
Mouse or human progeroid cells were seeded at density of […] or 5 x 10^4 cells respectively on 12-well plates and incubated for 24 h in DMEM medium. For proteosome-dependency assays, cells were pre-treated either with the proteasome inhibitor (S)-MG132 (20 µM) or with the NEDD8-activating enzyme inhibitor MLN4924 (5 µM) for 2 h prior to […]
compound exposure. Then, cells were incubated with compound of interest or DMSO for the appropriate time and lysed with cold laemmli buffer (50 mM Tris-HCl pH 7.4, 150 mM NaCl, 1% Igepal) with a mixture of protease and phosphatase inhibitors (1 mM PMSF, 10 mM NaF, 0.3 mg/mL CalyculinA, 1 mM sodium orthovanadate, 10 mM β-glycerol-phosphate; all from Sigma-Aldrich and complete protease inhibitor cocktail, from Roche). Proteins were denatured at 95 ᵒC for 5 min and the lysates were immediately used or stored at -20 ᵒC until use. Samples were analysed by electrophoresis in polyacrylamide gels (All Kd SDS-PAGE, BioRad) and the proteins transferred to nitrocellulose membranes (GE Healthcare, Amersham). After 1 h of incubation in blocking buffer [20 mM Tris pH 7.6, 150 mM NaCl and 0.1% Tween-20 (TBS-T) with […]

[1] = Solubility in phosphate buffer solution; assay type: physicochemical; settings: aqueous buffer; phosphate buffer solution (PBS, pH = 7.5)

| SMILES | progerin levels (immunoblot quantification) (progerin) | progerin-reducing activity in the presence of proteasome inhibitor MG132 (progerin; compound 5 µM, pre-treated with (S)-MG132 20 µM 2 h) | progerin-reducing activity in the presence of neddylation inhibitor MLN4924 (progerin; compound 5 µM, pre-treated with MLN4924 5 µM 2 h) | solubility [1] |
| --- | --- | --- | --- | --- |
| CC1(C)Oc2cc3oc(=O)ccc3cc2C[C@@H]1OC(=O)CCCCCNc1cccc2c1C(=O)N(C1CCC(=O)NC1=O)C2=O (some centres unmarked) [compound 2] | most effective in reducing progerin levels | abolished | abolished | 0.5 µM (≈ 0.308 µg/mL) |
| CC1(C)Oc2cc3oc(=O)ccc3cc2C[C@@H]1OC(=O)CCCCC(=O)Oc1ccc2c(c1)CCCN2C(=O)CCl [compound 12] | failed to reduce progerin levels |  |  |  |
